US20250381249A1, “COMBINATION TREATMENT FOR RESISTANT HYPERTENSION” (Mayo Foundation for Medical Education and Research, priority 2018, published 2025)

Experiments:
Assay type in all cases: in vivo, rat
[1] = tested on: spontaneously hypertensive rats (SHR); assay: Individual and combined effects of MANP and Fs on BP and aldosterone in spontaneously hypertensive rats (Example 1); details: for Mean arterial pressure (MAP) Δ: 60 minute period, mean±SD
SHR [2] = assay: Acute study in SHR, renal function (GFR, urinary sodium and water excretion); details: Fs groups, 60 minutes, inulin clearance
Method: Acute Study Protocol in SHR: The cardiorenal and neurohumoral actions of MANP, Fs, or their combination were investigated in the genetic model of hypertension in male SHR (n=6 in each group). Rats were anesthetized in an induction chamber with inhaled Isoflurane 2.5%. During this brief state of anesthesia, the rats were administered IP Inactin 100 mg/kg to maintain anesthesia. An oxygen mask was used until the end of the experiment. The carotid artery was cannulated for arterial pressure measurements and the right jugular vein was cannulated for infusions. Pressures were recorded and analyzed digitally (Sonometrics, London, Ontario, Canada). […]
Neurohormonal and Electrolyte Analysis: Plasma ANP was measured by radioimmunoassay (Phoenix Pharmaceuticals) as an assessment of MANP, as the ANP RIA fully detects MANP (Burnett et al. (1986) Science 231(4742):1145-1147). Plasma and urinary cGMP (Enzo Life Sciences) and aldosterone (DRG International, Springfield, NJ) were determined by ELISA. Inulin concentrations were measured using the anthrone method, as described elsewhere (Fuhr et al. (1955) Klin. Wochenschr 33:729-730). GFR was calculated by inulin clearance. Electrolytes were measured by flame photometry (IL943, Instrumentation Laboratory, UK). […]
(§1) Statistical Analysis: Values are expressed as mean±standard error of mean (SEM). […]

SHR [3] = assay: Acute study in SHR, systemic hemodynamics (arterial BP); details: all three doses of Fs (1, 5, 10 mg/kg IV bolus)
Method: Acute Study Protocol in SHR: The cardiorenal and neurohumoral actions of MANP, Fs, or their combination were investigated in the genetic model of hypertension in male SHR (n=6 in each group). Rats were anesthetized in an induction chamber with inhaled Isoflurane 2.5%. During this brief state of anesthesia, the rats were administered IP Inactin 100 mg/kg to maintain anesthesia. An oxygen mask was used until the end of the experiment. The carotid artery was cannulated for arterial pressure measurements and the right jugular vein was cannulated for infusions. Pressures were recorded and analyzed digitally (Sonometrics, London, Ontario, Canada). Via a small incision in the lower abdominal wall, the bladder was cannulated for urine sampling.
Immediately after preparation, a 30-minute equilibration period was started with intravenous inulin infusion. […] After baseline measurements, rats were randomly assigned to ten groups: • Group 1—treated with MANP100; • Group 2—treated with MANP300; • Group 3—treated with MANP600; • Group 4—treated with Fs1; • Group 5—treated with Fs5; • Group 6—treated with Fs10; • Group 7—treated with MANP300+Fs5; • Group 8—treated with MANP300+Fs10; • Group 9—treated with MANP600+Fs10; and • Group 10—treated with inulin, normal saline, or inulin and normal saline. […]
as §1

SHR [4] = assay: Acute study in SHR, neurohumoral analysis (plasma and urinary cGMP, aldosterone); details: Fs5 and Fs10, 60 minutes
Method: Rats were anesthetized in an induction chamber with inhaled Isoflurane 2.5%. During this brief state of anesthesia, the rats were administered IP Inactin 100 mg/kg to maintain anesthesia. An oxygen mask was used until the end of the experiment. The carotid artery was cannulated for arterial pressure measurements and the right jugular vein was cannulated for infusions. Pressures were recorded and analyzed digitally (Sonometrics, London, Ontario, Canada). Via a small incision in the lower abdominal wall, the bladder was cannulated for urine sampling. Immediately after preparation, a 30-minute equilibration period was started with intravenous inulin infusion. […] Plasma and urinary cGMP (Enzo Life Sciences) and aldosterone (DRG International, Springfield, NJ) were determined by ELISA. Inulin concentrations were measured using the anthrone method, as described elsewhere (Fuhr et al. (1955) Klin. Wochenschr 33:729-730). GFR was calculated by inulin clearance. Electrolytes were measured by flame photometry (IL943, Instrumentation Laboratory, UK). All measurements were performed according to manufacturer instructions.

GFR compared to the no treatment control groups (SHR [2]): significantly lower
levels of aldosterone compared to the control, MANP100 and MANP300 groups (SHR [4]): significantly higher
SMILES: NS(=O)(=O)c1cc(C(=O)O)c(NCc2ccco2)cc1Cl [Fs, furosemide]
Mean arterial pressure (MAP) Δ ([1]; Fs1: 1 mg/kg Fs single bolus): −40±9 mmHg
Mean arterial pressure (MAP) Δ ([1]; Fs5: 5 mg/kg Fs single bolus): −55±8 mmHg
Mean arterial pressure (MAP) Δ ([1]; Fs10: 10 mg/kg Fs single bolus): −63±11 mmHg
urinary flow ([1]; Fs, MANP and Fs+MANP groups, p<0.05): enhanced
BP compared with controls (SHR [3]): significantly reduced
